{"source": "patent US11236081B2", "about": "“Crystalline salts of corydalmine” (priority 2018, dated 2022)", "key": {"[1]": {"test": "Pharmacokinetic study: plasma concentration and plasma PK parameters after IV/PO dosing (LC-MS/MS, WinNonlin)", "format": "in vivo, Male SD Rat", "conditions": "for concentration in plasma / concentration in plasma, Mean: male SD rat, PO 10 mg/kg (equal to freebase), vehicle 20% HP-β-CD in water (POA, freebase) or water (salts); for concentration in plasma: individual rats; for concentration in plasma, Mean: mean n=3", "description": "Pharmacokinetic and Brain Penetration Study\nDose formulation processing during dosing: The dose formulations will be kept at room temperature.\nConcentrations of Test Article in the plasma samples will be analyzed using a LC-MS/MS method.\nWinNonlin (Phoenix™, version 6.1) or other similar software will be used for pharmacokinetic calculations. The following pharmacokinetic parameters will be calculated, whenever possible from the plasma concentration versus time data:\nIV administration: T1/2, C0, AUClast, AUCinf, MRTinf, Cl, Vss, Number of Points for Regression.\nPO administration: T1/2, Cmax, Tmax, MRTinf, AUCinf, AUClast, F %, Number of Points for Regression.\nThe pharmacokinetic data will be described using descriptive statistics such as mean, standard deviation."}, "[2]": {"test": "Solubility studies in water at 2 hours", "format": "physicochemical"}, "[3]": {"test": "Dynamic vapor sorption (DVS), hygroscopicity at 25° C.", "format": "physicochemical", "method": "Dynamic Vapor Sorption (DVS)\nDVS was determined using DVS Intrinsic (SMS, UK). Transfer about 20 to 50 mg of the compound into a SMS dynamic vapor sorption model DVS and record the weight change with respect to a varying atmospheric humidity at 25° C."}, "[4]": {"conditions": "plasma, PO (group POE), 10 mg/kg, individual rats R40, R41, R42, 10 mg/kg"}, "[5]": {"conditions": "plasma, PO (group POE), 10 mg/kg, mean of R40-R42"}}, "note": "Where “and” joins values, the source holds several entries; their conditions need not be identical. Equal values may be shown once.", "data": [{"smiles": "COc1cc2c(cc1OC)[C@@H]1Cc3ccc(O)c(OC)c3CN1CC2.O=C(O)C(=O)O", "note": "[TLZ-16 oxalate]", "values": [{"measurement": "F", "setting": "[1]; PO (group POE), 10 mg/kg, individual rats R40, R41, R42, 10 mg/kg", "value": "18.5% and 28.8% and 25.3%"}, {"measurement": "F, Mean", "setting": "[1]; PO (group POE), 10 mg/kg, mean of R40-R42", "value": 24.2, "unit": "%"}, {"measurement": "concentration in plasma", "setting": "[1]; 0 h", "value": "BLOQ (BLOQ = below limit of quantitation (0.2 ng/mL))"}, {"measurement": "concentration in plasma", "setting": "[1]; 0.25 h, 10 mg/kg", "value": "302 ng/mL and 368 ng/mL and 131 ng/mL"}, {"measurement": "concentration in plasma, Mean", "setting": "[1]; 0.25 h", "value": 267, "unit": "ng/mL"}, {"measurement": "concentration in plasma", "setting": "[1]; 0.5 h, 10 mg/kg", "value": "270 ng/mL and 309 ng/mL and 148 ng/mL"}, {"measurement": "concentration in plasma, Mean", "setting": "[1]; 0.5 h", "value": 242, "unit": "ng/mL"}, {"measurement": "concentration in plasma", "setting": "[1]; 1 h, 10 mg/kg", "value": "143 ng/mL and 200 ng/mL and 121 ng/mL"}, {"measurement": "concentration in plasma, Mean", "setting": "[1]; 1 h", "value": 155, "unit": "ng/mL"}, {"measurement": "concentration in plasma", "setting": "[1]; 2 h, 10 mg/kg", "value": "70.8 ng/mL and 86.0 ng/mL and 156 ng/mL"}, {"measurement": "concentration in plasma, Mean", "setting": "[1]; 2 h", "value": 104, "unit": "ng/mL"}, {"measurement": "concentration in plasma", "setting": "[1]; 4 h, 10 mg/kg", "value": "63.1 ng/mL and 120 ng/mL and 95.0 ng/mL"}, {"measurement": "concentration in plasma, Mean", "setting": "[1]; 4 h", "value": 92.7, "unit": "ng/mL"}, {"measurement": "concentration in plasma", "setting": "[1]; 8 h, 10 mg/kg", "value": "10.1 ng/mL and 56.8 ng/mL and 29.1 ng/mL"}, {"measurement": "concentration in plasma, Mean", "setting": "[1]; 8 h", "value": 32.0, "unit": "ng/mL"}, {"measurement": "concentration in plasma", "setting": "[1]; 24 h", "value": "BLOQ (BLOQ = below limit of quantitation (0.2 ng/mL))"}, {"measurement": "AUCInf", "setting": "[1]; [4]", "value": "629 ng·h/mL and 1369 ng·h/mL and 859 ng·h/mL"}, {"measurement": "AUClast", "setting": "[1]; [4]", "value": "600 ng·h/mL and 960 ng·h/mL and 756 ng·h/mL"}, {"measurement": "AUClast/D", "setting": "[1]; [4]", "value": "60 kg·ng·h/mL/mg and 96 kg·ng·h/mL/mg and 75.6 kg·ng·h/mL/mg"}, {"measurement": "AUC—% Extrap_obs", "setting": "[1]; [4]", "value": "4.67% and 29.8% and 12.0%"}, {"measurement": "Cmax", "setting": "[1]; [4]", "value": "302 ng/mL and 368 ng/mL and 156 ng/mL"}, {"measurement": "MRTInf_obs", "setting": "[1]; [4]", "value": "2.59 h and 6.60 h and 3.95 h"}, {"measurement": "T1/2", "setting": "[1]; [4]", "value": "2.02 h and 4.98 h and 2.46 h"}, {"measurement": "Tmax", "setting": "[1]; [4]", "value": "0.25 h (2×) and 2 h"}, {"measurement": "AUCInf, Mean", "setting": "[1]; [5]", "value": 952, "unit": "ng·h/mL"}, {"measurement": "AUClast, Mean", "setting": "[1]; [5]", "value": 772, "unit": "ng·h/mL"}, {"measurement": "AUClast/D, Mean", "setting": "[1]; [5]", "value": 77.2, "unit": "kg·ng·h/mL/mg"}, {"measurement": "AUC—% Extrap_obs, Mean", "setting": "[1]; [5]", "value": 15.5, "unit": "%"}, {"measurement": "Cmax, Mean", "setting": "[1]; [5]", "value": 275, "unit": "ng/mL"}, {"measurement": "MRTInf_obs, Mean", "setting": "[1]; [5]", "value": 4.38, "unit": "h"}, {"measurement": "T1/2, Mean", "setting": "[1]; [5]", "value": 3.15, "unit": "h"}, {"measurement": "Tmax, Mean", "setting": "[1]; [5]", "value": 0.833, "unit": "h"}, {"measurement": "solubility in water", "setting": "[2]", "value": "approximately 19.2 mg/mL"}, {"measurement": "hygroscopicity (DVS)", "setting": "[3]; DVS, 25° C.", "value": "slightly hygroscopic"}, {"measurement": "solid form after DVS test", "setting": "[3]; after DVS test", "value": "does not change"}, {"measurement": "water absorbed in DVS", "setting": "[3]; at 80% RH, 25° C.", "value": "about 0.25 wt %"}]}]}
